In assay [1] the test system is HBV replication in HepG2-2.2.15 cells. The experiment in a line: Dot-blot assay of HBV replication (HBV DNA levels). The conditions noted are these: Hepatitis B virus, HepG2 2.2.15, 144 h, read-out: Activity in dot-blot-assay (EC50, reduction in HBV DNA levels).
Protocol: In the first anti-viral assay, the ability of compounds to inhibit HBV replication in an HBV-producing hepatoma cell line using the dot-blot method is evaluated.
Briefly, confluent monolayers of HepG2-2.2.15 cells are incubated with complete medium containing various concentrations of a test compound. Three days later, the culture medium is replaced with fresh medium containing the appropriately diluted test compound. Six days following the initial administration of the test compound, the cell culture supernatant is collected, and cell lysis is performed. The samples are applied onto Nylos membranes and DNA is immobilized to the membrane by UV cross-linking. After pre-hybridization, the HBV probe is added and the hybridization is performed overnight. The membranes are exposed to the Kodak films; antiviral activity is calculated from the reduction in HBV DNA levels (EC50).
In the first anti-viral assay, the ability of compounds to inhibit HBV replication in an HBV-producing hepatoma cell line using the dot-blot method was evaluated.
Confluent monolayers of HepG2-2.2.15 cells were incubated with complete medium containing various concentrations of a test compound. Three days later, the culture medium was replaced with fresh medium containing the appropriately diluted test compound. Six days following the initial administration of the test compound, the cell culture supernatant was collected, and cell lysis was performed. The samples were applied onto Nylos membranes and DNA was immobilized to the membrane by UV cross-linking. After pre-hybridization, the HBV probe was added and the hybridization was performed overnight. The membranes were exposed to the Kodak films; antiviral activity was calculated from the reduction in HBV DNA levels (EC50).
For assay [2], the target named is T1, HBV C150Bo capsid protein (HBV CA protein) (Hepatitis B virus genotype D subtype adw, UniProt P03147, C107A/C48A/C61A/R150C).
T1 construct: amino acids 1-150, C49A, C61A, C107A, 150C; made in house; host or cells: E. coli
Briefly: HBV assembly assay (fluorescence quenching in vitro capsid assembly). The format is biochemical. From the text:
The fluorescence quenching in vitro assembly HBV assay was developed according to a method described by Zlotnick and coworkers (Nature Biotechnology 2006, 24:358). The assay is based on the observation that the C-termini of the HBV core protein cluster together during capsid formation. This assay utilizes a mutant C150 HBV capsid protein where all wild-type cysteines are mutated to alanines, but a C-terminal cysteine residue is preserved and is labeled with fluorescent BoDIPY-FL dye. […] Thus, the assay measures the ability and potency of test compounds to modulate capsid assembly by monitoring the fluorescence of the labeled capsid C150Bo protein.
In a typical assay, the mutant HBV C150 protein (amino acids 1-150, C49A, C61A, C107A, 150C) is cloned into a T7 RNA-polymerase based expression vector, expressed in E. coli and purified to homogeneity as a dimer. The purified HBV core protein is desalted and labeled with BODIPY-FL Dye.
In a non-limiting embodiment, the assembly assay is conducted in 96-well plate format. The assembly reactions are carried out in 50 mM Hepes buffer, pH 7.5 and 150 mM NaCl. The compounds are pre-incubated with the HBV CA protein for 15 min, and the assembly reactions are initiated by addition of NaCl. The reaction is allowed to continue for 1 hour at room temperature.
To determine the effect on capsid assembly, each test compound is initially screened at 4 different concentrations: 10 μM, 3 μM, 1 μM and 0.3 μM in duplicates. […] Identified primary hits are confirmed in follow-up studies as described elsewhere herein. […] EC50 values for test compounds are determined via analysis of the dose-response curve.
Selected compounds of the invention were assayed in the HBV assembly assay, as described elsewhere herein. The assembly assay was conducted in 96-well plate format. The assembly reactions were carried out in 50 mM Hepes buffer, pH 7.5 and 150 mM NaCl. The compounds were pre-incubated with the HBV CA protein for 15 min, and the assembly reactions were initiated by addition of NaCl. The reaction was allowed to continue for 1 hour at room temperature.
To determine the effect on capsid assembly, each test compound was initially screened at 4 different concentrations: 10 μM, 3 μM, 1 μM and 0.3 μM in duplicates.

pEC50: −log10 of the molar value.

The results in this text go back to patent publication US9579313B2, “Hepatitis B antiviral agents” (Novira Therapeutics, Inc., priority 2013, dated 2017).

T1 sequence (P03147 1-150 C48A/C61A/C107A/R150C): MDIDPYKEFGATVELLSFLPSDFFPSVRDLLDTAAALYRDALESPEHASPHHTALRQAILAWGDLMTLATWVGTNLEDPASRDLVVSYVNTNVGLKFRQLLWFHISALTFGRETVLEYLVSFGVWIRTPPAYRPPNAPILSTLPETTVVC

As for `COCC1(O)CCN(S(=O)(=O)c2cc(C(=O)Nc3ccc(F)c(F)c3)c3cc[nH]c3c2)CC1` [Compound 1535], the pEC50 in assay [1] and in assay [2] was over 5.00 throughout.
Turning to `O=C(Nc1ccc(F)c(F)c1)c1cc(S(=O)(=O)N2CCC(CO)C(O)C2)cc2[nH]ccc12` (stereo not shown) [Compound 1292], in assay [2], the pEC50 is over 5.00.
In assay [2], `O=C(Nc1cc(F)c(F)c(F)c1)c1cc(S(=O)(=O)N2CCC(O)CC2)cc2[nH]ccc12` [Compound 1287] gave a negative logarithm of the EC50 (pEC50) of over 5.00.
For `O=C(Nc1ccc(F)c(Cl)c1)c1cc(S(=O)(=O)N2CC(O)C2)cc2[nH]ccc12` [Compound 1298], in assay [1], the pEC50 is over 5.00.
Turning to `O=C(Nc1ccc(F)c(Cl)c1)c1cc(S(=O)(=O)N2CCC(O)CC2)cc2[nH]ccc12` [Compound 949], the pEC50 in assay [1] and in assay [2] was over 5.00 throughout.
With `O=C(Nc1ccc(F)c(F)c1)c1cc(S(=O)(=O)N2CCC(O)CC2)cc2[nH]ccc12` [Compound 1288], in assay [1], the pEC50 was over 5.00.
`COC(=O)C1=C(C)NC(c2ccccn2)=NC1c1ccc(F)cc1Cl` (stereo not shown) [HAP-1, reference compound]: in assay [2] (control compounds), the “EC50 of control compounds in assembly assay” value is reported as “consistent with the literature”.
The compound `O=C(Nc1ccc(F)c(F)c1)c1cc(S(=O)(=O)N2CCC(O)(CO)CC2)cc2[nH]ccc12` [Compound 1304] gave a pEC50 in assay [2] of over 5.00.
In the case of `NC1CCN(S(=O)(=O)c2cc(C(=O)Nc3cc(F)c(F)c(F)c3)c3cc[nH]c3c2)CC1` [Compound 1508], the pEC50 in assay [1] and in assay [2] was over 5.00 each time.
As for `O=C(Nc1ccc(F)c(Cl)c1)c1cc(S(=O)(=O)N2CCC(CO)C(O)C2)cc2[nH]ccc12` (stereo not shown) [Compound 1290], in assay [1], the pEC50 is over 5.00.
On to `COCC1(O)CCN(S(=O)(=O)c2cc(C(=O)Nc3cc(F)c(F)c(F)c3)c3cc[nH]c3c2)CC1` [Compound 1533], for which the pEC50 in assay [1] and in assay [2] was over 5.00 throughout.
On to `O=C(Nc1ccc(F)c(Cl)c1)c1cc(S(=O)(=O)N2CCC(O)(CO)CC2)cc2[nH]ccc12` [Compound 1302], for which the pEC50 in assay [1] is over 5.00.
In the case of `COCC1(O)CCN(S(=O)(=O)c2cc(C(=O)Nc3ccc(F)c(Cl)c3)c3cc[nH]c3c2)CC1` [Compound 1534], in assay [2], the negative logarithm of the EC50 (pEC50) was over 5.00.
Consider `O=C(Nc1ccc(F)c(F)c1)c1cc(S(=O)(=O)N2CC(O)C2)cc2[nH]ccc12` [Compound 1300], for which the pEC50 in assay [1] and in assay [2] was over 5.00 each time.
With `O=C(Nc1ccc(F)c(F)c1)c1cc(S(=O)(=O)N2CC(O)C(F)C2)cc2[nH]ccc12` (stereo not shown) [Compound 1296], the pEC50 in assay [2] was over 5.00.
For `COC1(CO)CCN(S(=O)(=O)c2cc(C(=O)Nc3cc(F)c(F)c(F)c3)c3cc[nH]c3c2)CC1` [Compound 1536], the negative-log EC50 (pEC50) in assay [2] is over 5.00.
Take `O=C(Nc1ccc(F)c(Cl)c1)c1cc(S(=O)(=O)N2CCC(O)CC2)c2[nH]cnc2c1` [Compound 1472]: the pEC50 in assay [1] was over 5.00.
On to `O=C(Nc1cc(F)c(F)c(F)c1)c1cc(S(=O)(=O)N2CCC(CO)C(O)C2)cc2[nH]ccc12` (stereo not shown) [Compound 1291], for which the pEC50 in assay [2] is over 5.00.
`O=C(Nc1cc(F)c(F)c(F)c1)c1cc(S(=O)(=O)N2CC(O)C2)cc2[nH]ccc12` [Compound 1299] showed a pEC50 in assay [2] of over 5.00.
Same read-out and setting: then `O=C(Nc1cc(F)c(F)c(F)c1)c1cc(S(=O)(=O)N2CCC(O)(CO)CC2)cc2[nH]ccc12` [Compound 1303], with over 5.00.
Turning to `COC1(CO)CCN(S(=O)(=O)c2cc(C(=O)Nc3ccc(F)c(Cl)c3)c3cc[nH]c3c2)CC1` [Compound 1537], the negative-log EC50 (pEC50) in assay [1] is over 5.00.
For `O=C(Nc1ccc(F)c(Cl)c1)c1cc(S(=O)(=O)N2CC(O)C(F)C2)cc2[nH]ccc12` (stereo not shown) [Compound 1294], the pEC50 in assay [1] and in assay [2] was over 5.00 each time.
